This note sets out measurements from the kinase profiling compilation of Christmann-Franck et al. (2016).

What all share (test): Free Choice Kinase Assay Projects, Flashplate
One experiment addresses TEK (human) (UniProt Q02763). The settings on record: compound 10.0 µM; ATP 1 µM.
A further experiment addresses MAP3K8 (human) (UniProt P41279). The settings on record: compound 10.0 µM; ATP 3 µM.
Another experiment concerns the target PLK4 (human) (UniProt O00444). The settings on record: compound 10.0 µM; ATP 0.3 µM.
A further experiment concerns the target KDR (human) (UniProt P35968). The settings on record: compound 10.0 µM; ATP 1 µM.
The target of a further experiment is EGFR (human) (UniProt P00533). To be noted: compound 10.0 µM; ATP 0.3 µM.
A further experiment has as its target AKT1 (human) (UniProt P31749). The settings on record: compound 10.0 µM; ATP 3 µM.
The target of another experiment is PTK2 (human) (UniProt Q05397). To be noted: compound 10.0 µM; ATP 1 µM.
For a further experiment, the target named is SRC (human) (UniProt P12931). To be noted: compound 10.0 µM; ATP 0.3 µM.
A further experiment deals with IGF1R (human) (UniProt P08069). The settings on record: compound 10.0 µM; ATP 1 µM.
Another experiment has as its target MAPK14 (human) (UniProt Q16539). To be noted: compound 10.0 µM; ATP 1 µM.
The next experiment addresses EPHB4 (human) (UniProt P54760). To be noted: compound 10.0 µM; ATP 1 µM.
The target in the next experiment is NUAK1 (human) (UniProt O60285). To be noted: compound 10.0 µM; ATP 1 µM.
For the next experiment, the target named is ERBB2 (human) (UniProt P04626). The settings on record: compound 10.0 µM; ATP 1 µM.
A further experiment deals with CDK4 CCND1 (human) (UniProt P11802+P24385). The settings on record: compound 10.0 µM; ATP 3 µM.
The target in another experiment is PLK1 (human) (UniProt P53350). To be noted: compound 10.0 µM; ATP 1 µM.
The target of another experiment is MET (human) (UniProt P08581). To be noted: compound 10.0 µM; ATP 0.3 µM.
The next experiment deals with MAPK10 (human) (UniProt P53779). To be noted: compound 10.0 µM; ATP 0.3 µM.
The next experiment has as its target AURKB (human) (UniProt Q96GD4). To be noted: compound 10.0 µM; ATP 10 µM.
A further experiment has as its target CDK2 CCNA2 (human) (UniProt P24941+P20248). The settings on record: compound 10.0 µM; ATP 0.3 µM.
A further experiment deals with AXL (human) (UniProt P30530). To be noted: compound 10.0 µM; ATP 0.3 µM.
Another experiment concerns the target PDGFRB (human) (UniProt P09619). To be noted: compound 10.0 µM; ATP 0.3 µM.
The next experiment addresses CSNK2A1 (human) (UniProt P68400). To be noted: compound 10.0 µM; ATP 0.1 µM.
Another experiment concerns the target AURKA (human) (UniProt O14965). To be noted: compound 10.0 µM; ATP 10 µM.

A word on the residual activity: it is the signal under treatment as a percentage of the control signal.

EGFR (human), sequence (P00533 whole entry, looked up): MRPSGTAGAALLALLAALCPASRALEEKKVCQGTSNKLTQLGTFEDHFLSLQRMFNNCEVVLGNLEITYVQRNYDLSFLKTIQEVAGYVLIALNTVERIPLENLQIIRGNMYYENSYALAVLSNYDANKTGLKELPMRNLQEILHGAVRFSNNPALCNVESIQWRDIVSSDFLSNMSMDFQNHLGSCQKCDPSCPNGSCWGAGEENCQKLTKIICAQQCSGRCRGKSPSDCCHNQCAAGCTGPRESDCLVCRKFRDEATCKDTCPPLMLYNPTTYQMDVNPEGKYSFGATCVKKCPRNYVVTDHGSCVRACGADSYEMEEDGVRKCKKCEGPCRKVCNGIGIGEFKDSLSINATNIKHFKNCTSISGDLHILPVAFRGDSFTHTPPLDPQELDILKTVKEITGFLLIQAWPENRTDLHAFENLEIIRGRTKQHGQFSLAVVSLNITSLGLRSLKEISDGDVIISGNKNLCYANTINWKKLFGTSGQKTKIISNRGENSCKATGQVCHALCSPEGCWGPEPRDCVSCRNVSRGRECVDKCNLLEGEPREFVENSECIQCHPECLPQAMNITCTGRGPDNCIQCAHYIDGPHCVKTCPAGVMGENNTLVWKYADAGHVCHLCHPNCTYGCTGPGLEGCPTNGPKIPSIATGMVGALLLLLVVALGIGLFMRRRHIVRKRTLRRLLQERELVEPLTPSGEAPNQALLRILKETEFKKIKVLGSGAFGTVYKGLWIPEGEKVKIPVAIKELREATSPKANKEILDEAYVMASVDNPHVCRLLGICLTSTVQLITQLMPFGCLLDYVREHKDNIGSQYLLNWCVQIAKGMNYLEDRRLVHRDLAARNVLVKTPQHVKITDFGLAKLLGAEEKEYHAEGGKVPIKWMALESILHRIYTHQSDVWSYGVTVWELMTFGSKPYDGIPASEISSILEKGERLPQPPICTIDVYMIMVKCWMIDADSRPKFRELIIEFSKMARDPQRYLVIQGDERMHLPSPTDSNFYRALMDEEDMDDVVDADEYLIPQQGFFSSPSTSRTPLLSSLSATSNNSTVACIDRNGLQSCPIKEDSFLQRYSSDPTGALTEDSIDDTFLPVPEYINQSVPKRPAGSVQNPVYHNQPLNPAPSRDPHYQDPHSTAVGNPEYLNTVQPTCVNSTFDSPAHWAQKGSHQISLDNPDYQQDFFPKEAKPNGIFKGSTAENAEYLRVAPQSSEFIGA
TEK (human), sequence (Q02763 whole entry, looked up): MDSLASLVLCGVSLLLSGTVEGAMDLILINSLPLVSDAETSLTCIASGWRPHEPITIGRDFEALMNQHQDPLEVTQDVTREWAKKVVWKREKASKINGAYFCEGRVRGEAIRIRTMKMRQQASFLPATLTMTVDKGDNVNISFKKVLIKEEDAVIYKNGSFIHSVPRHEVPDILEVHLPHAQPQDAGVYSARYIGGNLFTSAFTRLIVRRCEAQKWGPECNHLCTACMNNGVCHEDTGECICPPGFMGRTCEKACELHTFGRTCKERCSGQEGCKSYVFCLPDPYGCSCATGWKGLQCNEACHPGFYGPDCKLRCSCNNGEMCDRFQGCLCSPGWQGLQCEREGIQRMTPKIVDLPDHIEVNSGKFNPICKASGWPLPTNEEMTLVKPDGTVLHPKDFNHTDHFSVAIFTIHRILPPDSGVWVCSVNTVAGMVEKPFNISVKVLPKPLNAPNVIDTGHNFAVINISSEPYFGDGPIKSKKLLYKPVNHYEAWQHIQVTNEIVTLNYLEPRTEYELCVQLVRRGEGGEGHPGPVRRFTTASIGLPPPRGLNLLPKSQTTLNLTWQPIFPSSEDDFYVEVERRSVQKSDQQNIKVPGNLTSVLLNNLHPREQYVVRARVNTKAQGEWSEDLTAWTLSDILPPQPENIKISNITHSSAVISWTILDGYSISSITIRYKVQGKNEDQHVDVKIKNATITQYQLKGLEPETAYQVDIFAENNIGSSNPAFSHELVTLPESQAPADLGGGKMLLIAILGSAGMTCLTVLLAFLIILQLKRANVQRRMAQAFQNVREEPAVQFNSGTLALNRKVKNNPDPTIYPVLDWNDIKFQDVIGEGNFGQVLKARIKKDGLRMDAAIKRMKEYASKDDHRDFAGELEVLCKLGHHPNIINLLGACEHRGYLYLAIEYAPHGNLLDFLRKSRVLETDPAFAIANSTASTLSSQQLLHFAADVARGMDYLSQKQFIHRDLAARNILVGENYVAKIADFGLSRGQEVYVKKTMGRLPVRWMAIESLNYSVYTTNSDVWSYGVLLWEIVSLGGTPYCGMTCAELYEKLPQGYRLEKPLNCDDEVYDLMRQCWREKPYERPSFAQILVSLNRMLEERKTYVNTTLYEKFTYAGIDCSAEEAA
KDR (human), sequence (P35968 whole entry, looked up): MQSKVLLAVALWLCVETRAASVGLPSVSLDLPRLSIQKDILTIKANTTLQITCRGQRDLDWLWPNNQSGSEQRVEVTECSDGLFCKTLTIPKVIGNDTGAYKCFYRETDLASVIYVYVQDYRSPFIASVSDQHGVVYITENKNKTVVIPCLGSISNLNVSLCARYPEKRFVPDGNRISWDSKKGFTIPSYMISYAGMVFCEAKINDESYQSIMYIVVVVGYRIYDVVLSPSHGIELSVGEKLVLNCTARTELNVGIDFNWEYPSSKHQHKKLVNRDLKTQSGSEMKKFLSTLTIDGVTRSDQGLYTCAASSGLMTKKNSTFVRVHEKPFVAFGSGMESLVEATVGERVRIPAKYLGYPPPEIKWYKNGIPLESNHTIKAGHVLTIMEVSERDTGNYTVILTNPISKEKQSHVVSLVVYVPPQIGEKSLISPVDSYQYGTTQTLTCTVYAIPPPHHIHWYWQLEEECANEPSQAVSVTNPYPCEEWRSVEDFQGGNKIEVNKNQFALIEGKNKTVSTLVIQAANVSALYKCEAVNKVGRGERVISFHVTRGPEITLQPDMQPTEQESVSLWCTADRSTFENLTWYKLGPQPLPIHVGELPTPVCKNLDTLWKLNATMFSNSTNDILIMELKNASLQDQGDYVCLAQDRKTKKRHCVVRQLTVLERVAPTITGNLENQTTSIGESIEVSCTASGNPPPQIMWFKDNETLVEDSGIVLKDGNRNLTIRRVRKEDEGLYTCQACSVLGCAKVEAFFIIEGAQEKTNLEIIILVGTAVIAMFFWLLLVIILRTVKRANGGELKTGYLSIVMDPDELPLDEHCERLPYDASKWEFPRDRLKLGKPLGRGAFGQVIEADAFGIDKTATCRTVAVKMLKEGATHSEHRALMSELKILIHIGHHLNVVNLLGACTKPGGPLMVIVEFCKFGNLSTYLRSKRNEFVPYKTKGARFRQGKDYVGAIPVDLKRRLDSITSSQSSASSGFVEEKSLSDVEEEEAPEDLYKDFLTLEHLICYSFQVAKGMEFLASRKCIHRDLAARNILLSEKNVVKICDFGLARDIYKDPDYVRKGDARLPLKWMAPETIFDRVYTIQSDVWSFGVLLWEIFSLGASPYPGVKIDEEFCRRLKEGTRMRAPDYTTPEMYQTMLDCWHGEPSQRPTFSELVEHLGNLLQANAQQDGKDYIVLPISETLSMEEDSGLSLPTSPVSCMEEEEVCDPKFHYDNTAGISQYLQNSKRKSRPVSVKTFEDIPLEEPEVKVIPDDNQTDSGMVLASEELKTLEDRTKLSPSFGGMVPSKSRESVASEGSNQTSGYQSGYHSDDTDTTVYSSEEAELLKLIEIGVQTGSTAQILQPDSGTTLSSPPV
IGF1R (human), sequence (P08069 whole entry, looked up): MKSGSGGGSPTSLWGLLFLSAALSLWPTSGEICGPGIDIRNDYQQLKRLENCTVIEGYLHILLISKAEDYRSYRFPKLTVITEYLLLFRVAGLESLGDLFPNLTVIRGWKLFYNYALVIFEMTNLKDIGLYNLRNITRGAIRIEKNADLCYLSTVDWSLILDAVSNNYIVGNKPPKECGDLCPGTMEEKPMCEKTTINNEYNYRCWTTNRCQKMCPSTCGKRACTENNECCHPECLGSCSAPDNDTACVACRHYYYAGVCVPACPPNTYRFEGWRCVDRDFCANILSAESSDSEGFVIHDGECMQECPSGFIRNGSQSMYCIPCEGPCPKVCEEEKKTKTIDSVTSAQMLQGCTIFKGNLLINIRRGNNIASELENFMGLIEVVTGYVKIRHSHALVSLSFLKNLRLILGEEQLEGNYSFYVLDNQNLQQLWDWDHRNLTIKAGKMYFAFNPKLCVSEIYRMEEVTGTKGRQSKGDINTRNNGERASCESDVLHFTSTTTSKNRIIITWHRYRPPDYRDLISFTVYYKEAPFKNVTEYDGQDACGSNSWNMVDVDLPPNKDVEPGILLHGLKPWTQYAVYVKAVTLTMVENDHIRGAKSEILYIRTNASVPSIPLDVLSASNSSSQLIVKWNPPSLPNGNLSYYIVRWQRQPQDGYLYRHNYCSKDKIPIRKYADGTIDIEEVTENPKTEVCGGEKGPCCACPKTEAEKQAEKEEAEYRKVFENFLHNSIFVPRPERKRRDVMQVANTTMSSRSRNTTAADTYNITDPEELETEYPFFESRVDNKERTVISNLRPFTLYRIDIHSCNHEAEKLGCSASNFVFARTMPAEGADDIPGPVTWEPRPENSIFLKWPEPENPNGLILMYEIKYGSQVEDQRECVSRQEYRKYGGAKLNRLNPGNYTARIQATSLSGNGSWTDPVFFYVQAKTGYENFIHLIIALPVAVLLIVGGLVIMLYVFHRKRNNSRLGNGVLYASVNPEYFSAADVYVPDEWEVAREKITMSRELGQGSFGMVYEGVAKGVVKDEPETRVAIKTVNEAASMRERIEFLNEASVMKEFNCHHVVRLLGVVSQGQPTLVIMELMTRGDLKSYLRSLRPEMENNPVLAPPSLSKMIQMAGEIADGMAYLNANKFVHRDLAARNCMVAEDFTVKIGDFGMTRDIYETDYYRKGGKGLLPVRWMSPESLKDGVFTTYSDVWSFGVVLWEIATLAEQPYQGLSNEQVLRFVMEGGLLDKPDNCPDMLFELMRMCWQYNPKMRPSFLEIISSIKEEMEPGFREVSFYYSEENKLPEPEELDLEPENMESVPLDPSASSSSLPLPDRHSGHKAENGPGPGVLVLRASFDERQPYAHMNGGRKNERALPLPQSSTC

As to `Fc1ccc(-c2[nH]c(/C=C/c3ccccc3)nc2-c2ccncc2)cc1`, the residual activity at TEK (human) came out at 6%; at MAP3K8 (human), 35%; on PLK4 (human) it was 5%; on KDR (human), 17%; at EGFR (human), 2%; at AKT1 (human), 75%. Also, the residual activity came out at 82% on PTK2 (human); 8% on SRC (human); 16% at IGF1R (human); 0% on MAPK14 (human); 21% on EPHB4 (human); 45% on NUAK1 (human). Further, the residual activity was found to be 3% at ERBB2 (human); 36% on CDK4 CCND1 (human); 39% at PLK1 (human); 25% on MET (human); 11% on MAPK10 (human); 32% on AURKB (human). Further, the residual activity on CDK2 CCNA2 (human) amounted to 32%; at AXL (human) it was 61%; at PDGFRB (human) it was 34%; on CSNK2A1 (human), 73%; at AURKA (human) it was 38%.

In the case of `N#CCSc1nc(-c2ccncc2)c(-c2ccc(F)cc2)[nH]1`, the residual activity worked out at 10% at TEK (human); 101% on MAP3K8 (human); 57% on PLK4 (human); 3% at KDR (human); 2% on EGFR (human); 110% on AKT1 (human). The residual activity was 71% on PTK2 (human); 8% at SRC (human); 68% at IGF1R (human); 1% on MAPK14 (human); 18% on EPHB4 (human); 106% at NUAK1 (human). Besides, the residual activity at ERBB2 (human) was 2%; at CDK4 CCND1 (human), 102%; on PLK1 (human) it was 86%; at MET (human), 45%; at MAPK10 (human) it was 12%; at AURKB (human), 66%. The residual activity was determined as 90% at CDK2 CCNA2 (human); 80% on AXL (human); 16% on PDGFRB (human); 93% at CSNK2A1 (human); 53% at AURKA (human).

As for `Fc1ccc(-c2[nH]c(SCc3ccccc3)nc2-c2ccnc(F)c2)cc1`, the residual activity on TEK (human) is 34%; on MAP3K8 (human), 106%; at PLK4 (human), 128%; at KDR (human) it was 32%; on EGFR (human), 17%; at AKT1 (human), 155%. Further, the residual activity on PTK2 (human) is 90%; on SRC (human) it was 18%; at IGF1R (human), 41%; on MAPK14 (human), 7%; at EPHB4 (human), 77%; at NUAK1 (human), 127%. In addition, the residual activity at ERBB2 (human) worked out at 9%; at CDK4 CCND1 (human), 109%; at PLK1 (human), 131%; on MET (human), 76%; at MAPK10 (human), 88%; on AURKB (human), 85%. In addition, the residual activity at CDK2 CCNA2 (human) stood at 71%; at AXL (human), 75%; on PDGFRB (human), 70%; at CSNK2A1 (human) it was 86%; at AURKA (human), 93%.

On to `COc1ccc(C(=O)Nc2cc(-c3nc(SC)n(C)c3-c3ccc(F)cc3)ccn2)cc1`, for which the residual activity amounted to 21% on TEK (human); 87% on MAP3K8 (human); 20% at PLK4 (human); 8% on KDR (human); 7% on EGFR (human); 113% on AKT1 (human). The residual activity at PTK2 (human) came to 131%; on SRC (human) it was 9%; at IGF1R (human), 23%; on MAPK14 (human), 3%; at EPHB4 (human), 33%; on NUAK1 (human), 95%. In addition, the residual activity at ERBB2 (human) was determined as 17%; at CDK4 CCND1 (human), 76%; on PLK1 (human), 81%; on MET (human), 52%; on MAPK10 (human), 18%; at AURKB (human), 87%. Moreover, the residual activity amounted to 37% on CDK2 CCNA2 (human); 54% on AXL (human); 48% on PDGFRB (human); 72% at CSNK2A1 (human); 97% at AURKA (human).

As for `CSc1nc(-c2ccnc(NC(C)=O)c2)c(-c2ccc(F)cc2)n1C`, the residual activity on TEK (human) worked out at 24%; at MAP3K8 (human), 74%; on PLK4 (human) it was 70%; at KDR (human), 13%; at EGFR (human), 17%; at AKT1 (human), 154%. The residual activity at PTK2 (human) was 71%; at SRC (human), 29%; on IGF1R (human), 78%; at MAPK14 (human), 1%; on EPHB4 (human), 32%; at NUAK1 (human), 104%. The residual activity was found to be 31% on ERBB2 (human); 102% on CDK4 CCND1 (human); 109% at PLK1 (human); 79% on MET (human); 11% at MAPK10 (human); 78% on AURKB (human). Besides, the residual activity on CDK2 CCNA2 (human) was 111%; at AXL (human), 52%; at PDGFRB (human), 26%; on CSNK2A1 (human) it was 88%; at AURKA (human) it was 58%.

For the molecule `CSc1ccc(CSc2nc(-c3ccncc3)c(-c3ccc(Br)cc3)[nH]2)cc1`, the residual activity on TEK (human) is 21%; on MAP3K8 (human), 79%; at PLK4 (human), 33%; on KDR (human) it was 51%; on EGFR (human), 49%; on AKT1 (human), 147%. For the same molecule, the residual activity at PTK2 (human) was determined as 122%; at SRC (human) it was 30%; at IGF1R (human), 33%; on MAPK14 (human) it was 11%; at EPHB4 (human), 56%; on NUAK1 (human) it was 94%. The residual activity at ERBB2 (human) amounted to 31%; at CDK4 CCND1 (human), 87%; on PLK1 (human), 94%; on MET (human), 54%; on MAPK10 (human) it was 64%; at AURKB (human) it was 63%. Moreover, the residual activity at CDK2 CCNA2 (human) was 64%; at AXL (human), 85%; on PDGFRB (human), 54%; at CSNK2A1 (human) it was 71%; on AURKA (human) it was 78%.
